Test results published in paper PMC12833730, “Discovery of a First‐in‐Class Covalent Allosteric SHP1 Inhibitor with Immunotherapeutic Activity” (Angewandte Chemie (International Ed. in English), 2025).

Assays:
[1] = system: LCK, PLCγ and ERK1/2 phosphorylation in Jurkat T cells; experiment: TCR-LCK signaling immunoblot; assay type: cell-based; settings: 20 µM
Method: (§1) Supernatants from lysed cells were reduced, treated with iodoacetamide to cap thiol residues, and digested by trypsin for bottom‐up proteomics analysis. […] LCK is the direct substrate of SHP1 and ERK1/2, and PLCγ is the downstream effector protein of LCK‐mediated TCR signaling. […] Statistical analyses were performed with Graphpad Prism software 10.4.2 through the one‐way ANOVA test using Turkey post‐hoc comparison. ****p < 0.0001 was considered significant.
(§2) To further confirm M029 cellular target engagement, we investigated the effect of M029 on T cell function. SHP1 plays a negative role in T cells, and deletion of SHP1 in T cells lowers the activation threshold and enhances antitumor immunity.^[ [30], [31], [32], [33] ^] Mechanistically, SHP1 attenuates T cell receptor (TCR) signaling via dephosphorylation of the lymphocyte‐specific protein tyrosine kinase LCK.^[ [31], [84], [85], [86] ^] T cell activation leads to increased expression and secretion of interleukin 2 (IL‐2)^[ [87] ^] while the removal of SHP1 in T cells enhances IL‐2 production, cell proliferation, and cytolysis capacity.^[ [30], [32] ^] Accordingly, we sought to assess the impact of targeting SHP1 with M029 on TCR‐LCK signaling and T cell activation. […] M029 also dose‐dependently promoted IL‐2 production (Figure 4c). […] These findings corroborate that the observed increase in LCK phosphorylation and its downstream signaling indeed resulted from SHP1 inhibition by M029.
Immunoblotting: Cultured cells were lysed with ice-cold lysis buffer (50 mM Tris, pH 8.0, 150 mM NaCl, 10% Glycerol, 1% Triton-X-100) supplied with phosphatase inhibitor (Bimake) and protease inhibitor mixture (Roche Applied Science). Equal amounts of protein were resolved by SDS-PAGE, transferred to a nitrocellulose membrane, and subjected to immunoblotting. […]

SHP1 [2] = target: T1, SHP1 (Homo sapiens, UniProt P29350); experiment: IC50 after 10-min/60-min preincubation, DiFMUP phosphatase assay; assay type: biochemical; settings: negative control analogs of M029
T1 construct: SHP1, residues 245-543; made in house; host or cells: E. coli BL21(DE3)
Text: The PTP‐catalyzed reaction involves a nucleophilic attack by the conserved active site Cys side chain on the phosphorus atom of phosphotyrosine in the substrate.^[ [53] ^] As such, the PTPs could serve as prime targets for covalent inhibition. Previously described activity‐based probes or covalent ligands for the PTPs are either phosphotyrosine isosteres or thiol‐reactive compounds that covalently modify the active site residues (including the catalytic Cys) and lack sufficient isozyme specificity.^[ [54], [55], [56], [57], [58], [59], [60], [61] ^] Inspired by the resurgence in covalent inhibitors for difficult drug targets, we set out to discover covalent SHP1 inhibitors by screening for electrophilic fragments that bind covalently to SHP1. This strategy is increasingly utilized to identify novel ligands for a target of interest.^[ [47], [62], [63] ^] We assembled a library of 4600 Cys reactive molecules from the Enamine covalent fragment collections containing 49.0% acrylamide, 38.1% chloroacetamide, 5.15% chloromethylketone, 5.20% activated nitrile, 2.10% epoxide, and 0.53% disulfide (Figure S1A). We carried out a high‐throughput biochemical fragment screening of this curated commercially available library against the SHP1 catalytic domain (residues 245–543). Each fragment (500 µM) was incubated with SHP1 (500 nM) for 30 min at room temperature before diluting the reaction 5.5‐fold with 24.45 mM para‐nitrophenyl phosphate (pNPP) to measure the residual PTP activity. This concentration of substrate was chosen to out‐compete any remaining fragment to reduce the inactivation of SHP1 during the enzymatic hydrolysis of pNPP. After a 2‐min incubation at 25 °C, the reaction was quenched by the addition of 5N NaOH, and the production of para‐nitrophenol was determined by absorbance at 405 nm. This assay format afforded a Z’‐factor of 0.70 (Figure S1B), indicating a robust screen to reliably identify hit molecules. To enhance the probability of discovering covalent ligands with inherent preference for SHP1, we also counter‐screened the same library against SHP2, the closest homolog of SHP1, and two other widely studied PTPs, PTP1B and PTPN22 (also called LYP). […] Among these, 31 were repurchased based on their observed preference for SHP1 and structural diversity, 11 of which were confirmed as potential covalent inhibitors for SHP1 based on the time dependency of their half‐maximal inhibition concentration (IC50) values determined with a 10‐min and 60‐min preincubation time, respectively (Table 1).
To further confirm the time-dependent inhibition and determine the IC50 of acquired hits, repurchased compounds from Enamine were serially diluted in a 96-well plate, followed by the addition of proteins at 200 nM. After 10-minute and 60-minute preincubation, 2 µL of the mixture was transferred into 100 µM 6,8-Difluoro-4-Methylumbelliferyl Phosphate (DiFMUP, Invitrogen, cat# D6567) at a final volume of 200 µL. The reaction was allowed to proceed for 5 minutes and quenched by the addition of 40 µl of a 160 µM solution of bpV(Phen) (Sigma-Aldrich, cat# SML0889). The fluorescence signal was measured using a CLARIOstar Plus Microplate Spectrophotometer (BMG Labtech) using excitation and emission wavelengths of 340 nm and 450 nm, respectively. Data were fitted using Prism GraphPad 10.1.1.

IL-2 in Jurkat T cells = experiment: IL-2 mRNA / production; assay type: cell-based; settings: 20 µM
Method: as §1, §2

SHP1 [3] = target: T1, SHP1; experiment: Vanadate protection jump-dilution experiment; assay type: biochemical; settings: 500 µM sodium orthovanadate, 30 min
Method: To further understand the mode of M029 action and ascertain whether M029 binds the SHP1 active site or a yet undefined novel site in SHP1, we performed a vanadate (VO4 ^3−) protection experiment. Vanadate is a reversible and competitive PTP inhibitor,^[ [76], [77] ^] and thus excessive vanadate would be expected to fully occupy the PTP active site and prevent covalent modifications of residues within the active site pocket. In this assay, SHP1 was co‐incubated with 30 µM M029 and 500 µM sodium orthovanadate or vehicle control for 30 min. The SHP1‐inhibitor complex was then rapidly diluted 100‐fold into a buffered solution containing 10 mM pNPP, and immediately, the absorbance at 405 nm was monitored over time to determine the remaining phosphatase activity.

T1 sequence (P29350 245-543): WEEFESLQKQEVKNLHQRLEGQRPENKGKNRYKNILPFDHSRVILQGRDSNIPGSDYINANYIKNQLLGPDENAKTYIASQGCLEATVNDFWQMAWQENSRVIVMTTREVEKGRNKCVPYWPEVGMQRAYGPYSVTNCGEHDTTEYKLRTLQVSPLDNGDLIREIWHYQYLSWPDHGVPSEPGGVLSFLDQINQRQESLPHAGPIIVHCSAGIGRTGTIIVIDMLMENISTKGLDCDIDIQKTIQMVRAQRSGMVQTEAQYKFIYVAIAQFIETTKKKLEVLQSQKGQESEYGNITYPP

Structure (SMILES): CC(=O)Nc1ccc(S(=O)(=O)Nc2sccc2C#N)cc1 [M054, N-(4-(N-(3-cyanothiophen-2-yl)sulfamoyl)phenyl)acetamide]
- phosphorylation levels of LCK, PLCγ, and ERK1/2 [1]: neither impacted
- SHP1 inhibitory activity (in words) (SHP1 [2]): loses the ability to inactivate SHP1
- IL-2 secretion (IL-2 in Jurkat T cells): neither impacted

Structure (SMILES): [Na+].[Na+].[Na+].[O]=[V]([O-])([O-])[O-] [sodium orthovanadate, reference compound]
- SHP1 activity after 100-fold dilution of vanadate complex (SHP1 [3]): fully recovered activity

Structure (SMILES): O=C(CCl)Nc1ccccc1 [PhClAc, reference compound]
- phosphorylation levels of LCK, PLCγ, and ERK1/2 [1]: neither impacted
- SHP1 inhibitory activity (in words) (SHP1 [2]): inactive against SHP1
- IL-2 secretion (IL-2 in Jurkat T cells): neither impacted
